Entries after “also recorded” stand apart in the source; their conditions may differ. Read-outs that look alike come from different tables or passages of the source. Marks after values point to notes of the source that are not given here.
Columns and labels:
TauA = molecular target: T1, TauA (Escherichia coli, UniProt Q47537); experiment: Isothermal titration calorimetry, ligand binding to wild-type TauA; set-up: species or system E. coli
T1 construct: His tag with TEV site (pEHisTEV vector) (cleaved yes); made in house; host or cells: E. coli BL21 (DE3)
Method: The gene encoding for the mature TauA from E. coli (accession number: K12-Q47537) was cloned into the pEHisTEV vector. BL21 (DE3) cells transformed with pEHisTEVtauA plasmid were grown at 310 K. Isopropyl β-D-1-thiogalactopyranoside was added to a final concentration of 0.5 mM when the culture reached an OD600 of 0.6, and the growth continued at 298 K for 18 h. Cells were harvested by centrifugation (6000×g) and resuspended in PBS supplemented with 20 mM imidazole and 3 mM MgCl2. Cells were lysed by sonication (10 cycles; 10 s per cycle with 10 s interval on ice) followed by centrifugation at 30 000 g for 1 h. The supernatant was subjected to Ni-NTA affinity chromatography followed by overnight dialysis with TEV protease and size exclusion chromatography using a Superdex S-200 column equilibrated with 20 mM Tris (pH 7.5) and 150 mM NaCl. […] SDS–PAGE indicated high purity.
(§1) Binding of ligands to TauA and mutants was measured at 298 K using ITC (MicroCal iTC200 microcalorimeter, Malvern Instruments). The protein buffer was in 20 mM Tris (pH 7.5) and 150 mM NaCl (ITC buffer). Protein and ligands were diluted to desired concentrations using ITC buffer. The pH of protein and ligand was adjusted at 277 K. An amount of 200 µl of protein and 60 µl of ligand was added into the sample cell and injection syringe, respectively. Seventeen 2.4 µl injections were performed with a pre-injection of 0.5 µl, a 180 s interval and an injection speed of 0.5 µl/s. Control experiments were performed where ligand was injected into ITC buffer. The heat of interaction was obtained by subtracting control measurements (heat of dilution) from the experimental measurements. The baseline was generated and the concentration-normalized binding isotherm was integrated using the MicroCal Origin software (version 7). The first injection peak was deleted from the isotherm. The isotherm was fitted to a single-site binding model. Values of binding constant (Ka, M^−1), enthalpy change (ΔH, J/mol) and binding stoichiometry (n) were allowed to vary (unless mentioned specifically) during the fitting procedure. The dissociation constant (Kd, M) and entropy change (ΔS, J/mol/K) were derived from Ka, ΔH and n accordingly. The Kd value is derived from the absolute value of Ka (Kd = 1/Ka).

TauA Gln30Ala = TauA Gln30Ala (Escherichia coli, UniProt Q47537, Q30A); experiment: biochemical; assay type: binding, E. coli; details: ITC, Gln30Ala mutant
Method: (§2) Alanine-substituted TauA mutants (Gln30Ala, Glu106Ala, Thr132Ala and Asp205Ala) were generated by PCR using the QuikChange Lightning Site-Directed Mutagenesis Kit (Agilent Technologies). Mutations were confirmed by DNA sequencing. Mutants were expressed and purified as for the wild-type TauA.
as §1

TauA Asp205Ala = TauA Asp205Ala (Escherichia coli, UniProt Q47537, D205A); experiment: biochemical; assay type: binding, E. coli; details: Asp205Ala mutant
Method: as §2, §1

TauA Thr132Ala = TauA Thr132Ala (Escherichia coli, UniProt Q47537, T132A); experiment: biochemical; assay type: binding, E. coli; details: Thr132Ala mutant
Method: as §2, §1

TauA Glu106Ala = TauA Glu106Ala (Escherichia coli, UniProt Q47537, E106A); assay type: binding, E. coli; details: ITC, Glu106Ala mutant
Method: as §2
as §1, with “Values of binding constant (Ka, M^−1), enthalpy change (ΔH, J/mol) and binding stoichiometry (n) were allowed to vary (unless mentioned specifically) during the fitting procedure. The dissociation constant (Kd, M) and entropy change (ΔS, J/mol/K) were derived from Ka, ΔH and n accordingly. The Kd value is derived from the absolute value of Ka (Kd = 1/Ka).” left out

[1] = stoichiometry fixed to 0.8 during data fitting
[2] = ITC, 298 K, 20 mM Tris pH 7.5, 150 mM NaCl, read-out: Kd
[3] = ITC, read-out: Kd (apparent affinity)

Chain of TauA Gln30Ala (Q47537 23-320 Q30A): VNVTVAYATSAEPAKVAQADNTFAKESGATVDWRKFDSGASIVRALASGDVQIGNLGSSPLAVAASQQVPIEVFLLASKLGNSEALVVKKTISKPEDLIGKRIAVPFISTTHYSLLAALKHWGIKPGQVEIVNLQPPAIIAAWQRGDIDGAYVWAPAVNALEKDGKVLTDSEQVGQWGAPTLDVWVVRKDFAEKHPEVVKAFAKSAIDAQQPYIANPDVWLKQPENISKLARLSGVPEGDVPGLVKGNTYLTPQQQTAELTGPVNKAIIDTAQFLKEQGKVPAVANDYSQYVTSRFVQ
Chain of TauA Thr132Ala (Q47537 23-320 T132A): as the sequence (Q47537 23-320 Q30A) above, with A8Q, T110A counted along it
Chain of TauA Asp205Ala (Q47537 23-320 D205A): as the sequence (Q47537 23-320 Q30A) above, with A8Q, D183A counted along it
T1 sequence (Q47537 23-320): as the sequence (Q47537 23-320 Q30A) above, with A8Q counted along it
Chain of TauA Glu106Ala (Q47537 23-320 E106A): as the sequence (Q47537 23-320 Q30A) above, with A8Q, E84A counted along it

In the case of `NCCP(=O)(O)O` [2-AEP, 2-Aminoethylphosphonic acid], the “heat of binding to TauA (exothermic/endothermic)” value (from here on “heat … (exothermic/endothermic)”) (TauA; ITC) is reported as “endothermic”, the ΔH (TauA; ITC, 298 K) is reported as 0.016 (±0.03%) kJ/mol and the ΔS (TauA; ITC, 298 K) is reported as 2.33 J/mol/K. The Kd (TauA; Kd (apparent affinity), ITC) was 649 µM, the Kd (TauA; Kd, ITC, 298 K, 20 mM Tris pH 7.5, 150 mM NaCl) was 649 µM and the Stoichiometry (TauA; [1]) was 0.8 ^*.

For `NC(=O)CNCCS(=O)(=O)O` [ACES, N-(2-acetamido)-2-aminoethanesulfonic acid], the “heat … (exothermic/endothermic)” value (TauA; ITC) was “exothermic”, the ΔH (TauA; ITC, 298 K) was −1.44 (±3.3%) kJ/mol and the ΔS (TauA; ITC, 298 K) was 1.87 J/mol/K. For the same compound, the Kd (TauA; [2]) was 7.46 µM, the Stoichiometry (TauA; ITC, fitted n) was 0.79(±2.4%) and the Kd (TauA; [3]) was 7.4 µM.

For `O=S(=O)(O)CCN1CCOCC1` [MES, 2-(N-morpholino)ethanesulfonate], the “heat … (exothermic/endothermic)” value (TauA; ITC) was “endothermic”, the ΔH (TauA; ITC, 298 K) was 4.74 (±0.8%) kJ/mol and the ΔS (TauA; ITC, 298 K) was 2.45 J/mol/K. The Kd (TauA; [2]) was 2.85 µM, the Stoichiometry (TauA; ITC, fitted n) was 0.868(±0.5%) and the Kd (TauA; [3]) was 2.8 µM.

For `NCCS(=O)(=O)O` [taurine, 2-aminoethanesulfonic acid], the “heat … (exothermic/endothermic)” value (TauA; ITC) was “exothermic”, the ΔH (TauA; ITC, 298 K) was −61.04 (±0.08%) kJ/mol and the Kd (TauA; [2]) was 0.0016 µM. For the same compound, the Stoichiometry (TauA; ITC, fitted n) was 0.768(±0.38%), the ΔH (TauA Gln30Ala) was −17.87 (±8%) kJ/mol and the ΔS (TauA Gln30Ala) was 3.72 J/mol/K. For the same compound, the Stoichiometry (TauA Gln30Ala; fitted n) was 0.83(±6%), the Kd (TauA Gln30Ala; Kd, 298 K) was 3.48 µM and the Kd (TauA Gln30Ala; affinity) was 3.5 µM. For the same compound, the Stoichiometry (TauA Asp205Ala; [1]) was 0.8 ^*, the ΔH (TauA Asp205Ala; ITC) was −34.83 (±2%) kJ/mol and the ΔS (TauA Asp205Ala; ITC) was −2.34 J/mol/K. For the same compound, the Kd (TauA Asp205Ala; Kd, ITC, 298 K) was 22.9 µM, the Kd (TauA Asp205Ala; affinity, ITC) was 22.9 µM and the ΔH (TauA Thr132Ala; ITC) was −28.76 (±8%) kJ/mol. For the same compound, the ΔS (TauA Thr132Ala; ITC) was −0.54 J/mol/K, the Kd (TauA Thr132Ala; Kd, ITC, 298 K) was 20.6 µM and the Stoichiometry (TauA Thr132Ala; [1]) was 0.8 ^*. For the same compound, the Kd (TauA Thr132Ala; affinity, ITC) was 20.6 µM and the taurine binding affinity (TauA Glu106Ala) was “detrimental to taurine binding; also recorded: No binding affinity could be measured”.

Source: PMC6906117, “Desolvation of the substrate-binding protein TauA dictates ligand specificity for the alkanesulfonate ABC importer TauABC” (Biochemical Journal, 2019)
